Literature values, collected in publication PMC6259197, “Alkaloids from Stems of Esenbeckia leiocarpa Engl. (Rutaceae) as Potential Treatment for Alzheimer Disease” (Molecules, 2010).

Key:
brine shrimp = conditions: alkaloids isolated from leaves of E. belizencis
[1] = tested on: Leucoagaricus gongylophorus; set-up: method as in doi:10.1590/S0103-50532002000100010; conditions: alkaloids from Raulinoa echinata; symbiotic fungus of leaf-cutting ants
Pectinophora gossypiella = tested on: Pectinophora gossypiella; set-up: method as in PMID 1965201; conditions: activity of extract attributed to leiokinine A and B

Row | Molecule | brine shrimp toxicity LC50 (brine shrimp) | antifungal activity against Leucoagaricus gongylophorus [1] | mutagenic activity | antifeedant activity against pink bollworm (Pectinophora gossypiella)
1 | COc1c2ccoc2nc2c(OC)c3c(cc12)OCO3 [flindersiamine] | > 1,000 ppm | antifungal activity | – | –
2 | COc1cc2nc3occc3c(OC)c2cc1OC [kokusaginine] | 367 ppm | antifungal activity | weak mutagenic activity | –
3 | CCCc1c(OC)c(=O)c2ccccc2n1C [leiokinine A] | – | – | – | weak antifeedant activity
4 | COc1c2cc3c(cc2nc2occc12)OCO3 [maculine] | – | antifungal activity | – | –
5 | COc1ccc2c(OC)c3ccoc3nc2c1OC [skimmianine] | – | antifungal activity | weak mutagenic activity | –
6 | leiokinine B | – | – | – | weak antifeedant activity
